Assay results as given in patent US20050037975A1, “Method for treatment of glutamate related disorders” (priority 1997, published 2005).
Values joined by “and” are separate entries in the source; they are usually repeats but may differ in a detail not shown here. Identical values can stand only once. Marks after values point to notes of the source that are not given here.

Tests used:
[1] = target: T1, rat liver mitochondrial low Km ALDH (Rattus norvegicus, UniProt P11884); assay: Liver aldehyde dehydrogenase determined in vivo; conditions: intraperitoneal (IP), liver taken eight hours later
T1 construct: differential centrifugation carried out to isolate the mitochondrial faction; from tissue; host or cells: liver mitochondria of male Sprague-Dawley derived rats
T1 sequence (P11884 20-519): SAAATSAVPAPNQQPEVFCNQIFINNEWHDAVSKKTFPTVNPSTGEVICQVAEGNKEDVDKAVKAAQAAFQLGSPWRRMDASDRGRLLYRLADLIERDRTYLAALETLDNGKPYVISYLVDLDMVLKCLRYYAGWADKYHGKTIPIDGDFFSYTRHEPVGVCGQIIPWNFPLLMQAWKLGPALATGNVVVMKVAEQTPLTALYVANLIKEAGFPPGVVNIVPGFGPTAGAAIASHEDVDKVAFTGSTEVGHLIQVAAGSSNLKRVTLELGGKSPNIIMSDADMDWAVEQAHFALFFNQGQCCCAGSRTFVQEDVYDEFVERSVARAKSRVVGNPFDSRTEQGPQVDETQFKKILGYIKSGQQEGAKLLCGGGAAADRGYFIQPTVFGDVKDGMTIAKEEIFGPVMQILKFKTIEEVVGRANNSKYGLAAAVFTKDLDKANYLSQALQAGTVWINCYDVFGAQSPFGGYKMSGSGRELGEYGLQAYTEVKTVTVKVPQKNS
Protocol: To determine if a compound of formula (I) can inhibit aldehyde dehydrogenase activity in vivo, doses of DETC-Me SO (1.3 mg/kg, 2.6 mg/kg, 5.2 mg/kg, 10.3 mg/kg and 20.6 mg/kg), were administered to male Sprague Dawley derived rats weighing 200-400 g. The rats were bred from a resident colony maintained in the Animal Care Unit at the University of Kansas. Rats were maintained on a 12-hour lights cycle with access to food and water ad lib until the night before an experiment, at which time food was removed. Animals were fasted for 12 hours prior to drug administration.
All experiments were carried out in the morning. Rats were treated with the doses of DETC-Me SO or DETC-Me described above, which were dissolved in polyethylene glycol 200. Eight hours later, the rats were anesthetized with carbon-dioxide and then decapitated. The liver was quickly removed and the low Km aldehyde dehydrogenase determined. Control rats were treated with […] vehicle only, and each control data point also represents an average of four rats.
The liver from drug-treated and control rats was homogenized in 0.25 M sucrose and differential centrifugation was carried out to isolate the mitochondrial fraction. The mitochondria were solubilized with sodium deoxycholate, and mitochondrial low Km and total (high and low) aldehyde dehydrogenase activity determined by the method of S. O. C. Tottmar et al., cited above.

[2] = tested on: brain glutamate receptors (synaptic membranes); assay: [3H]glutamate binding to mouse brain synaptic membranes in vitro
Protocol: Binding Studies—Synaptic membranes (100 μg protein) were isolated (Y. H. Lee et al., J. Neurosci. Res. 40, 797-806 (1995)) form whole brain homogenate of male Swiss Webster mice and were incubated in 0.1 mM L-glutamate for 30 minutes at 25° C. After addition of 50 nM of [^3H]glutamate, incubation was continued for an additional 45 minutes. Reactions were terminated by centrifugation at 4° C. to separate membrane-bound from free radioactivity. […] The rate (k) and maximum percent blockage of glutamate binding (M) by DETC-MeSO (1) during the incubation time (t) was determined by fitting the equation [% inhibition]=M(1−e^−kh) to these day by use of the program Grafit (Erithicus Software Ltd.). This equation was derived for first-order inactivation by a group specific reagent that gives a partial effect. If “A” is the percent of binding activity that remains after extensive exposure (t=of the receptor to excess DETC-MeSO, then M=100−A)e^−kh+A; substituting (100−M) for “A” and [100−% inhibition] for “a” in this equation gives the one employed for purposes of data analyses. […] A second equation was employed in the analysis of binding data that defines partial, irreversible inactivation of two distinct groups of receptors [% inhibition]=M1(1−e^−k1^IT)+M2(1−e^−k1^IT), where M1 and M2 are the maximum amount of inhibition obtained for complete modification of each receptor population and k1 and k2 are the rate constants for these modifications, respectively.
Six determinations of the effect of DETC-MeSO were made at each concentration tested (1, 5, 10, 50, 100, 200, and 1000 μM) and the average value is shown with error bars for one standard deviation.

MetSOX-induced seizures [3] = assay: MetSOX-induced seizures in mice; type: in vivo
Protocol: (§1) Animals—Male Swiss Webster mice (20-30 g) or male Sprague-Dawley rats (250-300 g) were used. All that employed animals were conducted in strict compliance with the NIH guidelines on animal use and institutional regulations concerning animal experimentation. Animals were exposed to hyperbaric oxygen in a specify designed press chamber as previously described (M. D. Faiman et al., Biochem. Pharmacol., 20, 3049-3067 (1971); M. D. Faiman et al. Aerosp. Med.,45, 29032.(1974)). The time to first clonic-tonic seizure after brining animals to a final pressure of five atmospheres of 100% oxygen or after intraperitoneal injection of convulsants was noted by. criteria outlined previously (M. D. Faiman et al. (1971), supra M. D. Faiman et al. (1974), supra). Unless otherwise specified, the ability of DETC-MeSO to prevent seizures was tested by intraperitoneal injection of 5.2 mg/kg of DETC-MeSO 1-2 hours prior to bringing the animal to a final pressure of 5 atmospheres of 100% oxygen or intraperitoneal injection of N-methyl-D-asparate (NMA) (125 mg/kg) r L-methionine sulfoximine (MetSOX) (250 mg/kg). Evaluation of the statistics for whole animal experiments or for changes in brain glutamate binding after administration of DETC-MeSO was conducted by use of the program GraphPAD InStat from Graph PAD Software (San Diego, Calif.).

MetSOX-induced seizures [4] = assay: MetSOX-induced seizures in rats; type: in vivo
Protocol: as §1

[5] = tested on: oxygen-induced seizures (5 ATA O2); assay: Hyperbaric oxygen-induced seizures in mice; type: in vivo
Protocol: as §1

[6] = double exponential fit, nominal values
[7] = MetSOX 250 mg/kg, 5.2 mg/kg i.p. 1-2 hours prior, ± standard error

dose required to inhibit 50% of the low Km ALDH [1]: 3.6 mg/kg
inhibition of glutamate binding ([2]; 0.1 mM, absence of glycine (FIG. 2)): 53%
irreversible blockage of glutamate binding ([2]; 0.1 mM, in the presence of glycine (0.1 mM)): 48±3%
M1, maximum inhibition of first receptor population [2, 6]: 15%
M2, maximum inhibition of second receptor population [2, 6]: 43%
k1, rate constant of first receptor population [2, 6]: 900 M⁻¹ s⁻¹ and 901 M⁻¹ s⁻¹
k2, rate constant of second receptor population [2, 6]: 8 M⁻¹ s⁻¹
rate (k) of blockage of glutamate binding ([2]; single exponential fit): 25±10 M^−s^−1
maximum percent blockage of glutamate binding (M) ([2]; single exponential fit, 1-1000 μM): 58±7%
SMILES: CCN(CC)C(=O)[S+](C)[O-] (stereo not drawn) [DETC-MeSO, S-Methyl-N,N-Diethylthiolcarbamate Sulfoxide]
effect on glutamate binding to synaptic membrane preparations ([2]; in vitro, without glycine): time-dependent, partial, and irreversible loss of their ability to bind glutamate
effect on time free of MetSOX seizures (MetSOX-induced seizures [3]): more than doubled
mean time to seizure (MetSOX-induced seizures [3]; [7]): 307 ± 60 min
number of animals that exhibited the effect/total number of animals in the group (MetSOX-induced seizures [3]; MetSOX 250 mg/kg, observation six hours): (6/8)^a
effect on time free of MetSOX seizures (MetSOX-induced seizures [4]): more than doubled
number of animals that exhibited the effect/total number of animals in the group (MetSOX-induced seizures [4]; MetSOX 250 mg/kg): (4/4)
mean time to seizure (MetSOX-induced seizures [4]; [7]): 318 ± 60 min
effect on oxygen-induced seizures ([5]; 5.2 mg/kg i.p. 2 hours before 5 atmospheres of 100% oxygen, mice): prevented the seizures
number of animals that exhibited the effect/total number of animals in the group ([5]; 5 ATA 100% O2, mice): (0/5)^a
mean time to seizure ([5]; 5 ATA 100% O2, mice, 5.2 mg/kg i.p. prior, observation one hour): >60^a min
